Experiments:
[1] = molecular target: Glutamate NMDA receptor (Rattus norvegicus) (UniProt P35439+Q00959+Q00960+Q00961+Q62645+Q8VHN2+Q9R1M7); assay: Inhibition of [3H]MDL-105519 binding to NMDA receptor glycine binding site; assay type: protein-complex assay; parameters: concentration or dose not given beside the values; details: concentration not given here
[2] = molecular target: Glutamate receptor ionotropic, AMPA (Rattus norvegicus, UniProt P19490+P19491+P19492+P19493); assay: Tested for in vitro binding affinity against AMPA receptor using [3H]-AMPA binding assay; assay type: protein-complex assay
[3] = molecular target: Glutamate NMDA receptor; assay: Inhibition of [3H]MDL-105,519 binding to NMDA receptor glycine-binding site; assay type: protein-complex assay, Rattus norvegicus
[4] = molecular target: T1, Glutamate receptor ionotropic, AMPA (Rattus norvegicus) (UniProt P19491+P19492+P19493+P19490); assay: Tested for in vitro binding affinity against AMPA receptor using [3H]-AMPA binding assay at a concentration of 1 uM; assay type: protein-complex assay
[5] = molecular target: T1, Glutamate receptor ionotropic, AMPA (Rattus norvegicus); assay: Tested for in vitro binding affinity against AMPA receptor using [3H]AMPA binding assay; assay type: protein-complex assay

Structure (SMILES)	inhibition [1]	IC50 [2]	IC50 [3]	inhibition [4]	Activity [5]
O=[N+]([O-])c1cc(CNc2ccccc2F)c2nc(O)c(O)nc2c1	–	1400 nM	500 nM	–	–
O=[N+]([O-])c1cc(CNc2ncccn2)c2nc(O)c(O)nc2c1	12%	380 nM	–	–	–
O=[N+]([O-])c1cc(CNc2ccccn2)c2nc(O)c(O)nc2c1	0%	500 nM	–	–	–
O=[N+]([O-])c1cc(CNc2cccnc2)c2nc(O)c(O)nc2c1	12%	970 nM	–	–	–
O=[N+]([O-])c1cc(CNc2cnccn2)c2nc(O)c(O)nc2c1	59%	220 nM	–	–	–
COC(=O)C1CCCC(NCc2cc([N+](=O)[O-])cc3nc(O)c(O)nc23)C1 (stereo unspecified)	30%	1300 nM	–	–	–
O=C(O)c1ccccc1NCc1cc([N+](=O)[O-])cc2nc(O)c(O)nc12	–	50 nM	50 nM	–	–
CCOC(=O)Cc1csc(NCc2cc([N+](=O)[O-])cc3nc(O)c(O)nc23)n1	–	1800 nM	410 nM	–	–
O=[N+]([O-])c1cc(CN2CCC(O)C2)c2nc(O)c(O)nc2c1 (stereo unspecified)	–	–	–	–	330 nM
O=C(O)Cc1csc(NCc2cc([N+](=O)[O-])cc3nc(O)c(O)nc23)n1	–	180 nM	120 nM	–	–
NC(=O)[C@@H]1CCCC[C@@H]1NCc1cc([N+](=O)[O-])cc2nc(O)c(O)nc12	25%	650 nM	–	–	–

Results, then the compound that gave them:

inhibition [1]	IC50 [2]	IC50 [3]	inhibition [4]	Activity [5]	Structure (SMILES)
40%	3100 nM	–	–	–	O=[N+]([O-])c1cc(CNCc2ccccn2)c2nc(O)c(O)nc2c1
25%	670 nM	–	–	–	O=C(O)[C@@H]1CCCC[C@@H]1NCc1cc([N+](=O)[O-])cc2nc(O)c(O)nc12
0%	900 nM	–	–	–	O=C(O)c1cccc(NCc2cc([N+](=O)[O-])cc3nc(O)c(O)nc23)c1
36%	1400 nM	–	–	–	O=[N+]([O-])c1cc(CNCc2ccncc2)c2nc(O)c(O)nc2c1
41%	190 nM	–	–	–	O=[N+]([O-])c1cc(CNc2nccs2)c2nc(O)c(O)nc2c1
–	1500 nM	1400 nM	–	–	O=[N+]([O-])c1cc(CNc2ccccc2)c2nc(O)c(O)nc2c1
–	2000 nM	30 nM	–	–	O=C(O)c1ccccc1NCc1cc(Cl)cc2nc(O)c(O)nc12
21%	780 nM	–	–	–	O=C(O)C1CCCC(NCc2cc([N+](=O)[O-])cc3nc(O)c(O)nc23)C1 (stereo unspecified)
10%	1600 nM	–	–	–	O=C(O)c1ccc(NCc2cc([N+](=O)[O-])cc3nc(O)c(O)nc23)cc1
–	1200 nM	750 nM	–	–	O=[N+]([O-])c1cc(CNc2ccc(F)cc2)c2nc(O)c(O)nc2c1
25%	–	–	0%	–	COC(=O)c1ccccc1NCc1cc(Cl)cc2nc(O)c(O)nc12
40%	12000 nM	–	–	–	Oc1nc2cc(Br)cc(CNCc3ccccn3)c2nc1O
–	1450 nM	120 nM	–	–	O=C(O)Cc1csc(NCc2cc(Br)cc3nc(O)c(O)nc23)n1
–	1400 nM	720 nM	–	–	O=[N+]([O-])c1cc(CNc2cccc(F)c2)c2nc(O)c(O)nc2c1
–	–	340 nM	17%	–	CCOC(=O)Cc1csc(NCc2cc(Br)cc3nc(O)c(O)nc23)n1

Source: ChEMBL document CHEMBL1130977, “5-Aminomethylquinoxaline-2,3-diones. Part II: N-aryl derivatives as novel NMDA/glycine and AMPA antagonists” (Bioorg Med Chem Lett, 1998)
